Data: patent US11786519B2, “Apoptosis-inducing agents for the treatment of cancer and immune and autoimmune diseases” (AbbVie Inc., priority 2011, dated 2023)

These compounds were tested against Bcl-xL (Homo sapiens, UniProt Q07817) (assay: TR-FRET binding assay, competition with F-Bak for Bcl-xL). Settings: competition with F-Bak probe, GST-Bcl-xL.
Bcl-xL, sequence (Q07817 whole entry): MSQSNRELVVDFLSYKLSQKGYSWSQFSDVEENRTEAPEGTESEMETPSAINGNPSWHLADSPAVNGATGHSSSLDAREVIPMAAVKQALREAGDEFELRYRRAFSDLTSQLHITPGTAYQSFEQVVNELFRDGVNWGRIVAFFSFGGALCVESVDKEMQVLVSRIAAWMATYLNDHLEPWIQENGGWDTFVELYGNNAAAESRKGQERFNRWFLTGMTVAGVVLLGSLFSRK
Description: Determination of the utility of compounds having Formula (I) as binders to and inhibitors of anti-apoptotic Bcl-xL proteins was performed using the Time Resolved-Fluorescence Resonance Energy Transfer (TR-FRET) Assay. Tb-anti-GST antibody was purchased from Invitrogen (Catalog No. PV4216).
The measurement of competition of compounds of the invention with F-Bak for a Bcl-2 family protein (Bcl-xL) binding site using a Time Resolved Fluorescence Resonance Energy Transfer (TR-FRET) binding assay:
Test compounds were serially diluted in DMSO starting at 50 µM (2× starting concentration; 10% DMSO) and 10 μL transferred into a 384-well plate.
The samples are then mixed on a shaker for 1 minute then incubated for an additional 2 hours at room temperature. For each assay plate, a probe/antibody and protein/antibody/probe mixture were included as a negative and a positive control, respectively. Fluorescence was measured on the ENVISION plate reader (Perkin Elmer) using a 340/35 nm excitation filter and 520/525 (F-Bak) and 495/510 nm ([…]) emission filters. Dissociation constants (Ki) were determined using Wang's equation (Wang, Z. X. An exact mathematical expression for describing competitive binding of two different ligands to a protein molecule. FEBS Lett. 1995 360:111-114). The TR-FRET assay can be performed in the presence of varying concentrations of human serum (HS) or fetal bovine serum (FBS).
Compound `Cc1nn(CC23CC4CC(CC(C4)C2)C3)c(C)c1-c1ccc(N2CCc3cccc(C(=O)Nc4nc5ccccc5s4)c3C2)nc1C(=O)O` [Example 2, 6-[8-(1,3-benzothiazol-2-ylcarbamoyl)-3,4-dihydroisoquinolin-2(1H)-yl]-3-[3,5-dimethyl-1-(tricyclo[3.3.1.1^3,7]dec-1-ylmethyl)-1H-pyrazol-4-yl]pyridine-2-carboxylic acid] has a Ki of less than 0.1 nM. Compound `CC12CC3CC(C)(C1)CC(Cn1cc(-c4ccc(N5CCc6cccc(C(=O)Nc7nc8ccccc8s7)c6C5)nc4C(=O)O)cn1)(C3)C2` [Example 5, 6-[8-(1,3-benzothiazol-2-ylcarbamoyl)-3,4-dihydroisoquinolin-2(1H)-yl]-3-(1-{[3,5-dimethyltricyclo[3.3.1.1^3,7]dec-1-yl]methyl}-1H-pyrazol-4-yl)pyridine-2-carboxylic acid] has a Ki of less than 0.1 nM. With `CC12CC3(C)CC(C)(C1)CC(Cn1cc(-c4ccc(N5CCc6cccc(C(=O)Nc7nc8ccccc8s7)c6C5)nc4C(=O)O)cn1)(C2)C3` [Example 9, 6-[8-(1,3-benzothiazol-2-ylcarbamoyl)-3,4-dihydroisoquinolin-2(1H)-yl]-3-{1-[(3,5,7-trimethyltricyclo[3.3.1.1^3,7]dec-1-yl)methyl]-1H-pyrazol-4-yl}pyridine-2-carboxylic acid] the Ki was 0.2 nM. `Cc1c(-c2ccc(N3Cc4c(C(=O)Nc5nc6ccccc6s5)cccc4C(C)(C)C3)nc2C(=O)O)cnn1CC12CC3CC(CC(C3)C1)C2` [Example 14, 6-[8-(1,3-benzothiazol-2-ylcarbamoyl)-4,4-dimethyl-3,4-dihydroisoquinolin-2(1H)-yl]-3-[5-methyl-1-(tricyclo[3.3.1.1^3,7]dec-1-ylmethyl)-1H-pyrazol-4-yl]pyridine-2-carboxylic acid] gave a Ki of 0.2 nM. With `Cc1c(-c2ccc(N3CCc4cccc(C(=O)Nc5nc6ccccc6s5)c4C3)nc2C(=O)O)cccc1N(C)CC12CC3CC(CC(C3)C1)C2` [Example 55, 6-[8-(1,3-benzothiazol-2-ylcarbamoyl)-3,4-dihydroisoquinolin-2(1H)-yl]-3-(2-methyl-3-{methyl[tricyclo[3.3.1.1^3,7]dec-1-ylmethyl]amino}phenyl)pyridine-2-carboxylic acid] the Ki was 0.4 nM. Work on `COCCC1(Cn2cc(-c3ccc(N4CCc5cccc(C(=O)Nc6nc7ccccc7s6)c5C4)nc3C(=O)O)cn2)C2CC3CC(C2)CC1C3` (stereo not shown) [Example 56, 6-[8-(1,3-benzothiazol-2-ylcarbamoyl)-3,4-dihydroisoquinolin-2(1H)-yl]-3-(1-{[2-(2-methoxyethyl)tricyclo[3.3.1.1^3,7]dec-2-yl]methyl}-1H-pyrazol-4-yl)pyridine-2-carboxylic acid] yielded a Ki of less than 0.1 nM. `Cc1c(-c2ccc(N3CCc4cccc(C(=O)Nc5nc6ccccc6s5)c4C3)nc2C(=O)O)nnn1CC12CC3CC(CC(C3)C1)C2` [Example 57, 6-[8-(1,3-benzothiazol-2-ylcarbamoyl)-3,4-dihydroisoquinolin-2(1H)-yl]-3-[5-methyl-1-(tricyclo[3.3.1.1^3,7]dec-1-ylmethyl)-1H-1,2,3-triazol-4-yl]pyridine-2-carboxylic acid] showed a Ki of less than 0.1 nM. Work on `COC12CC3CC(CC(Cn4c(C#N)cc(-c5ccc(N6CCc7cccc(C(=O)Nc8nc9ccccc9s8)c7C6)nc5C(=O)O)c4C)(C3)C1)C2` [Example 58, 6-[8-(1,3-benzothiazol-2-ylcarbamoyl)-3,4-dihydroisoquinolin-2(1H)-yl]-3-(5-cyano-1-{[3-methoxytricyclo[3.3.1.1^3,7]dec-1-yl]methyl}-2-methyl-1H-pyrrol-3-yl)pyridine-2-carboxylic acid] yielded a Ki of less than 0.1 nM. With `N#Cc1c(-c2ccc(N3CCc4cccc(C(=O)Nc5nc6ccccc6s5)c4C3)nc2C(=O)O)cccc1S(=O)(=O)C12CC3CC(CC(C3)C1)C2` [Example 60, 6-[8-(1,3-benzothiazol-2-ylcarbamoyl)-3,4-dihydroisoquinolin-2(1H)-yl]-3-[2-cyano-3-(tricyclo[3.3.1.1^3,7]dec-1-ylsulfonyl)phenyl]pyridine-2-carboxylic acid] the Ki was less than 0.1 nM. `Cc1c(-c2ccc(N3CCc4cccc(C(=O)Nc5nc6ccccc6s5)c4C3)nc2C(=O)O)ccnc1N(C)C1CCCCCCC1` [Example 61, 6-[8-(1,3-benzothiazol-2-ylcarbamoyl)-3,4-dihydroisoquinolin-2(1H)-yl]-2′-[cyclooctyl(methyl)amino]-3′-methyl-3,4′-bipyridine-2-carboxylic acid] was tested, and the Ki was less than 0.1 nM. Work on `Cc1c(-c2ccc(N3CCc4cccc(C(=O)Nc5nc6ccccc6s5)c4C3)nc2C(=O)O)cnn1CC1C2CC3CC(C2)CC1C3` (stereo not shown) [Example 62, 6-[8-(1,3-benzothiazol-2-ylcarbamoyl)-3,4-dihydroisoquinolin-2(1H)-yl]-3-[5-methyl-1-(tricyclo[3.3.1.1^3,7]dec-2-ylmethyl)-1H-pyrazol-4-yl]pyridine-2-carboxylic acid] yielded a Ki of less than 0.1 nM. `Cc1c(C(=O)N(C)C2C3CC4CC(C3)CC2C4)cccc1-c1ccc(N2CCc3cccc(C(=O)Nc4nc5ccccc5s4)c3C2)nc1C(=O)O` (stereo not shown) [Example 64] was tested, and the Ki was less than 0.1 nM. Compound `Cc1c(-c2ccc(N3CCc4cccc(C(=O)Nc5nc6ccccc6s5)c4C3)nc2C(=O)O)cccc1N(C)C(=O)C12CC3CC(CC(C3)O1)C2` [Example 68, 6-[8-(1,3-benzothiazol-2-ylcarbamoyl)-3,4-dihydroisoquinolin-2(1H)-yl]-3-{2-methyl-3-[methyl(2-oxatricyclo[3.3.1.1^3,7]dec-1-ylcarbonyl)amino]phenyl}pyridine-2-carboxylic acid] has a Ki of less than 0.1 nM. `Cc1c(-c2ccc(N3CCc4cccc(C(=O)Nc5nc6ccccc6s5)c4C3)nc2C(=O)O)cccc1S(=O)(=O)N(C)C1C2CC3CC(C2)CC1C3` (stereo not shown) [Example 69, 6-[8-(1,3-benzothiazol-2-ylcarbamoyl)-3,4-dihydroisoquinolin-2(1H)-yl]-3-(2-methyl-3-{methyl[tricyclo[3.3.1.1^3,7]dec-2-yl]sulfamoyl}phenyl)pyridine-2-carboxylic acid] was tested, and the Ki was 0.6 nM. `Cc1c(-c2ccc(N3CCc4cccc(C(=O)Nc5nc6ccccc6s5)c4C3)nc2C(=O)O)ccnc1S(=O)(=O)C12CC3CC(CC(C3)C1)C2` [Example 70, 6-[8-(1,3-benzothiazol-2-ylcarbamoyl)-3,4-dihydroisoquinolin-2(1H)-yl]-3′-methyl-2′-(tricyclo[3.3.1.1^3,7]dec-1-ylsulfonyl)-3,4′-bipyridine-2-carboxylic acid] was tested, and the Ki was less than 0.1 nM. For `Cc1c(-c2ccc(N3CCc4cccc(C(=O)Nc5nc6ccccc6s5)c4C3)nc2C(=O)O)cc(C#N)n1CC12CC3CC(CC(C)(C3)O1)C2` [Example 72, 6-[8-(1,3-benzothiazol-2-ylcarbamoyl)-3,4-dihydroisoquinolin-2(1H)-yl]-3-{5-cyano-2-methyl-1-[(3-methyl-2-oxatricyclo[3.3.1.1^3,7]dec-1-yl)methyl]-1H-pyrrol-3-yl}pyridine-2-carboxylic acid], the Ki was less than 0.1 nM. Compound `Cc1c(-c2ccc(N3CCc4cccc(C(=O)Nc5cn6ccncc6n5)c4C3)nc2C(=O)O)cnn1CC12CC3CC(CC(C3)C1)C2` [Example 73, 6-[8-(imidazo[1,2-a]pyrazin-2-ylcarbamoyl)-3,4-dihydroisoquinolin-2(1H)-yl]-3-[5-methyl-1-(tricyclo[3.3.1.1^3,7]dec-1-ylmethyl)-1H-pyrazol-4-yl]pyridine-2-carboxylic acid] has a Ki of less than 0.1 nM. `Cc1c(-c2ccc(N3CCc4cccc(C(=O)Nc5nc6ccccc6s5)c4C3)nc2C(=O)O)cnn1CC12CC3CC(C1)CC(S(C)(=O)=O)(C3)C2` [Example 81, 6-[8-(1,3-benzothiazol-2-ylcarbamoyl)-3,4-dihydroisoquinolin-2(1H)-yl]-3-(5-methyl-1-{[3-(methylsulfonyl)tricyclo[3.3.1.1^3,7]dec-1-yl]methyl}-1H-pyrazol-4-yl)pyridine-2-carboxylic acid] was tested, and the Ki was less than 0.1 nM. Work on `CNCCOC12CC3(C)CC(C)(CC(Cn4ncc(-c5ccc(N6CCc7cccc(C(=O)Nc8nc9ccccc9s8)c7C6)nc5C(=O)O)c4C)(C3)C1)C2` [Example 82, 6-[8-(1,3-benzothiazol-2-ylcarbamoyl)-3,4-dihydroisoquinolin-2(1H)-yl]-3-[1-({3,5-dimethyl-7-[2-(methylamino)ethoxy]tricyclo[3.3.1.1^3,7]dec-1-yl}methyl)-5-methyl-1H-pyrazol-4-yl]pyridine-2-carboxylic acid] yielded a Ki of less than 0.1 nM. In the case of `CNCCOCCOCCOC12CC3CC(CC(Cn4ncc(-c5ccc(N6CCc7cccc(C(=O)Nc8nc9ccccc9s8)c7C6)nc5C(=O)O)c4C)(C3)C1)C2` [Example 83, 6-[8-(1,3-benzothiazol-2-ylcarbamoyl)-3,4-dihydroisoquinolin-2(1H)-yl]-3-(5-methyl-1-{[3-(2-{2-[2-(methylamino)ethoxy]ethoxy}ethoxy)tricyclo[3.3.1.1^3,7]dec-1-yl]methyl}-1H-pyrazol-4-yl)pyridine-2-carboxylic acid], the Ki is reported as less than 0.1 nM. With `O=C(Nc1nc2ccccc2s1)c1cccc2c1CN(c1ccc(-c3ccc(=O)n(CC45CC6CC(CC(C6)C4)C5)c3)c(C(=O)O)n1)CC2` [Example 85, 6-[8-(1,3-benzothiazol-2-ylcarbamoyl)-3,4-dihydroisoquinolin-2(1H)-yl]-6′-oxo-1′-(tricyclo[3.3.1.1^3,7]dec-1-ylmethyl)-1′,6′-dihydro-3,3′-bipyridine-2-carboxylic acid] the Ki was less than 0.1 nM.

The compounds below were run against mouse FL5.12 cells transfected with Bcl-xL (Homo sapiens, UniProt Q07817) (assay: FL5.12 cellular assay (cell viability, CellTiter-Glo)). Settings: IL-3-depleted, 3% FBS assay media, 24 hours; read-out: FL5.12 Bcl-xL, −IL3, EC50.
mouse FL5.12 cells transfected with Bcl-xL, sequence (Q07817 whole entry, change not shown): as the sequence (Q07817 whole entry) above
Assay type: cell-based
Text: Individual determinations were the result of duplicate values.
For `Cc1nn(CC23CC4CC(CC(C4)C2)C3)c(C)c1-c1ccc(N2CCc3cccc(C(=O)Nc4nc5ccccc5s4)c3C2)nc1C(=O)O` [Example 2, 6-[8-(1,3-benzothiazol-2-ylcarbamoyl)-3,4-dihydroisoquinolin-2(1H)-yl]-3-[3,5-dimethyl-1-(tricyclo[3.3.1.1^3,7]dec-1-ylmethyl)-1H-pyrazol-4-yl]pyridine-2-carboxylic acid], the EC50 was less than 1 nM. `CC12CC3CC(C)(C1)CC(Cn1cc(-c4ccc(N5CCc6cccc(C(=O)Nc7nc8ccccc8s7)c6C5)nc4C(=O)O)cn1)(C3)C2` [Example 5, 6-[8-(1,3-benzothiazol-2-ylcarbamoyl)-3,4-dihydroisoquinolin-2(1H)-yl]-3-(1-{[3,5-dimethyltricyclo[3.3.1.1^3,7]dec-1-yl]methyl}-1H-pyrazol-4-yl)pyridine-2-carboxylic acid] showed an EC50 of 2 nM. With `CC12CC3(C)CC(C)(C1)CC(Cn1cc(-c4ccc(N5CCc6cccc(C(=O)Nc7nc8ccccc8s7)c6C5)nc4C(=O)O)cn1)(C2)C3` [Example 9, 6-[8-(1,3-benzothiazol-2-ylcarbamoyl)-3,4-dihydroisoquinolin-2(1H)-yl]-3-{1-[(3,5,7-trimethyltricyclo[3.3.1.1^3,7]dec-1-yl)methyl]-1H-pyrazol-4-yl}pyridine-2-carboxylic acid] the EC50 was 3 nM. For `Cc1c(-c2ccc(N3Cc4c(C(=O)Nc5nc6ccccc6s5)cccc4C(C)(C)C3)nc2C(=O)O)cnn1CC12CC3CC(CC(C3)C1)C2` [Example 14, 6-[8-(1,3-benzothiazol-2-ylcarbamoyl)-4,4-dimethyl-3,4-dihydroisoquinolin-2(1H)-yl]-3-[5-methyl-1-(tricyclo[3.3.1.1^3,7]dec-1-ylmethyl)-1H-pyrazol-4-yl]pyridine-2-carboxylic acid], the EC50 was less than 1 nM.
